Experimental data reported in ChEMBL document CHEMBL5678818, “Discovery of potent SOS1 inhibitors that block RAS activation via disruption of the RAS-SOS1 interaction” (Proc Natl Acad Sci U S A, 2019).

What was measured:
[1] = system: Tyrosine-protein kinase ABL1 (Homo sapiens), P00519 [F317L]; experiment: Inhibition of nonphosphorylated ABL1 F317L mutant (unknown origin) assessed as residual activity at 100 nM by KINOMEscan analysis relative to control
[2] = target: T1, Aurora kinase C (Homo sapiens) (UniProt Q9UQB9); experiment: Inhibition of AURKC (unknown origin) assessed as residual activity at 100 nM by KINOMEscan analysis relative to control
T1 sequence (whole entry): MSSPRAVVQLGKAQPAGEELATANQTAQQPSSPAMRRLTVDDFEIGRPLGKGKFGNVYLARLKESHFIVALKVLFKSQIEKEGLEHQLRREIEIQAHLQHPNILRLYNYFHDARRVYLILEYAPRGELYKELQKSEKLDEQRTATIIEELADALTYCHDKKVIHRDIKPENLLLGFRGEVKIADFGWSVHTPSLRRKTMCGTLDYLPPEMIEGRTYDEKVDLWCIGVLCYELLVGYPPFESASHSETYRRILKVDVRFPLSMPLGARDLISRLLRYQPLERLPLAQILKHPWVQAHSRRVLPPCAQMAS

[3] = target: Calcium/calmodulin-dependent protein kinase kinase 1 (Homo sapiens) (UniProt Q8N5S9); experiment: Inhibition of CAMKK1 (unknown origin) assessed as residual activity at 100 nM by KINOMEscan analysis relative to control
Calcium/calmodulin-dependent protein kinase kinase 1 (Homo sapiens), sequence (Q8N5S9 whole entry, looked up): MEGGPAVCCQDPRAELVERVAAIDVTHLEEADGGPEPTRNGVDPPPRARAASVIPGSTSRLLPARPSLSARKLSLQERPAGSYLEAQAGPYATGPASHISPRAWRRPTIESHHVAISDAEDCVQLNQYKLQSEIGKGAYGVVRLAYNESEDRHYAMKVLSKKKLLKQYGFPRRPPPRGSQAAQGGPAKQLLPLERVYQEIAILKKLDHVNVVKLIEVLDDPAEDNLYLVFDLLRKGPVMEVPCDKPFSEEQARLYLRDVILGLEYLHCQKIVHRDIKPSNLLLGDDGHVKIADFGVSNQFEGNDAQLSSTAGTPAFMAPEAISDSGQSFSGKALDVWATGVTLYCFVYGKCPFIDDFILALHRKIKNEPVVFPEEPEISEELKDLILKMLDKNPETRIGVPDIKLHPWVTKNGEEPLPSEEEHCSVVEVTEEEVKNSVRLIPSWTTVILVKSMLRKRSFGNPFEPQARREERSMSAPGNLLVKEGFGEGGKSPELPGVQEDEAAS

[4] = target: T2, Ephrin type-B receptor 2 (Homo sapiens) (UniProt P29323); experiment: Inhibition of EPHB2 (unknown origin) assessed as residual activity at 100 nM by KINOMEscan analysis relative to control
T2 sequence (whole entry): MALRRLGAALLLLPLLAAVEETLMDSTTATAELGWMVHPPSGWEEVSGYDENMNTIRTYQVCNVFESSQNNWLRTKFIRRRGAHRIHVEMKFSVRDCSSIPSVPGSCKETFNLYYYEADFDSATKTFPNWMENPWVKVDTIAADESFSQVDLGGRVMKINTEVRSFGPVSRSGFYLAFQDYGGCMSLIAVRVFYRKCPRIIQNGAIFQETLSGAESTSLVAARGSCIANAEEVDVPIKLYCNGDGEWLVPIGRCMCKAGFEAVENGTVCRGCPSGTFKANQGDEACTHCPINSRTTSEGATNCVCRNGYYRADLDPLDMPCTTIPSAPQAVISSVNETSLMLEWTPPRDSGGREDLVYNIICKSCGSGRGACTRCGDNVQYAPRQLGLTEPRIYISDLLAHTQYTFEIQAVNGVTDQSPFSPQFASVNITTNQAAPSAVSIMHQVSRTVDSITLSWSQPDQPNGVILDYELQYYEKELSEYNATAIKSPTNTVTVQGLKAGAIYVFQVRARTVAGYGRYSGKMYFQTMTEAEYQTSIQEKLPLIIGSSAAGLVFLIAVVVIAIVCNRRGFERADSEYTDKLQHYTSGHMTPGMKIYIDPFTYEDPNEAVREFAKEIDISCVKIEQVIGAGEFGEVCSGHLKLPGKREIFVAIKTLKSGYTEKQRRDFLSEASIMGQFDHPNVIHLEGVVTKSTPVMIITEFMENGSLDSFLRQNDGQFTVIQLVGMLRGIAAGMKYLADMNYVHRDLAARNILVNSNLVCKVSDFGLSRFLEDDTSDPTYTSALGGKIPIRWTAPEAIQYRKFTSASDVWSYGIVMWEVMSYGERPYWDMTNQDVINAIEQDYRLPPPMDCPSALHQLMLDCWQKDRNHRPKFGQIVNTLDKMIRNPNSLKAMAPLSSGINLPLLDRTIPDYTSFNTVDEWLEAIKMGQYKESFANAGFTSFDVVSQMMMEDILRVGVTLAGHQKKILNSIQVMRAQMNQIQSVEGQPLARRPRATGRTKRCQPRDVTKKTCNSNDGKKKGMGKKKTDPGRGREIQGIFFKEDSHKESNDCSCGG

[5] = target: T3, Serine/threonine-protein kinase LATS1 (Homo sapiens) (UniProt O95835); experiment: Inhibition of LATS1 (unknown origin) assessed as residual activity at 100 nM by KINOMEscan analysis relative to control
T3 sequence (whole entry): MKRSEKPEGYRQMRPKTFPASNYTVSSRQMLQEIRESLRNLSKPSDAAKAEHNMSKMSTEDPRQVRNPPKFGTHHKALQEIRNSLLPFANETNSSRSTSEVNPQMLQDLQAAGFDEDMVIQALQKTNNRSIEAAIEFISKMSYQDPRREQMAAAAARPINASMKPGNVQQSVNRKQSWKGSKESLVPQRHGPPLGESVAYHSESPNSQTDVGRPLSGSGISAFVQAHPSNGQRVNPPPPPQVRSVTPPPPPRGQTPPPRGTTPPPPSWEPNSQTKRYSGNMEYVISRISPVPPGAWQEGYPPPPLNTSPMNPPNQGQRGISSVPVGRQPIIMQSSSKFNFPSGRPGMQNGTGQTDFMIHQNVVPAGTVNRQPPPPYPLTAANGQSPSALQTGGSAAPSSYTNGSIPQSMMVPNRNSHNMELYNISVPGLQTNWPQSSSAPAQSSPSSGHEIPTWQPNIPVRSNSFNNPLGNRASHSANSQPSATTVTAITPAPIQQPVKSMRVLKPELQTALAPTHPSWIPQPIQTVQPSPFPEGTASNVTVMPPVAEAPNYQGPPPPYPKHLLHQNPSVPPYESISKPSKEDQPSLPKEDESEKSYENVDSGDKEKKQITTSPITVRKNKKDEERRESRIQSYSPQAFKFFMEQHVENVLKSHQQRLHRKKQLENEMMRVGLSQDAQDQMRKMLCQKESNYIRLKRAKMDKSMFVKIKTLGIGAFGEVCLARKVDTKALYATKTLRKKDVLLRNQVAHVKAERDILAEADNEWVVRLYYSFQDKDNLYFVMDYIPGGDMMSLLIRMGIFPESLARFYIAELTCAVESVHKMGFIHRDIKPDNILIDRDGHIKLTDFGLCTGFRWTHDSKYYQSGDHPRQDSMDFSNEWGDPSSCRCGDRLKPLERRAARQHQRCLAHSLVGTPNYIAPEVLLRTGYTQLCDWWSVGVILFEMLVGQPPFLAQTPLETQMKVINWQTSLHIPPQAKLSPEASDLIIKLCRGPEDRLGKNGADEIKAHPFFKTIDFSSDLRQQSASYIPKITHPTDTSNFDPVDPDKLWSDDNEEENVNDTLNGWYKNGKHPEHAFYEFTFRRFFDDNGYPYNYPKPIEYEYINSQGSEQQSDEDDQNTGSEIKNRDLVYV

[6] = target: Ribosomal protein S6 kinase alpha-2 (Homo sapiens) (UniProt Q15349); experiment: Inhibition of C-terminal RSK3 […] domain 2 (unknown origin) assessed as residual activity at 100 nM by KINOMEscan analysis relative to control
Ribosomal protein S6 kinase alpha-2 (Homo sapiens), sequence (Q15349 whole entry): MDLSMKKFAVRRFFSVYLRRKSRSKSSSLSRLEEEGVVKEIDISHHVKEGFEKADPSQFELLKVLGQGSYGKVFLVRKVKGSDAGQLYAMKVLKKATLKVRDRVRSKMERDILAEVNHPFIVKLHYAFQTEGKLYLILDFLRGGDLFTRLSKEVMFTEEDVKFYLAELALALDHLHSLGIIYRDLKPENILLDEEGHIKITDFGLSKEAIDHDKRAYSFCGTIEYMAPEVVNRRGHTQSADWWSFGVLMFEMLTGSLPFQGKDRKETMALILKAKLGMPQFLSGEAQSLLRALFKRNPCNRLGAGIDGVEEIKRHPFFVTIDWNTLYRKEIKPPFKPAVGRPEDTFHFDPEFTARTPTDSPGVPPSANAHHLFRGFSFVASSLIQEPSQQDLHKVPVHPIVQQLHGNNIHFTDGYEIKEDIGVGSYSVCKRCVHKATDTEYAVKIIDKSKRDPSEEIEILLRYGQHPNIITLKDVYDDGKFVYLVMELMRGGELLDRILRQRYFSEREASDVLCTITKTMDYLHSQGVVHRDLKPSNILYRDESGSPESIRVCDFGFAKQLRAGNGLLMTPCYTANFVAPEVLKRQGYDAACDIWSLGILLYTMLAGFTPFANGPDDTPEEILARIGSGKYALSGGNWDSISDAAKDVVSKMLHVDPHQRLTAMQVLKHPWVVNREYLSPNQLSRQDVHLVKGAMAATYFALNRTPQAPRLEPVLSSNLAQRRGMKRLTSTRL

Tyrosine-protein kinase ABL1 (Homo sapiens), P00519 [F317L], sequence (P00519 whole entry F317L): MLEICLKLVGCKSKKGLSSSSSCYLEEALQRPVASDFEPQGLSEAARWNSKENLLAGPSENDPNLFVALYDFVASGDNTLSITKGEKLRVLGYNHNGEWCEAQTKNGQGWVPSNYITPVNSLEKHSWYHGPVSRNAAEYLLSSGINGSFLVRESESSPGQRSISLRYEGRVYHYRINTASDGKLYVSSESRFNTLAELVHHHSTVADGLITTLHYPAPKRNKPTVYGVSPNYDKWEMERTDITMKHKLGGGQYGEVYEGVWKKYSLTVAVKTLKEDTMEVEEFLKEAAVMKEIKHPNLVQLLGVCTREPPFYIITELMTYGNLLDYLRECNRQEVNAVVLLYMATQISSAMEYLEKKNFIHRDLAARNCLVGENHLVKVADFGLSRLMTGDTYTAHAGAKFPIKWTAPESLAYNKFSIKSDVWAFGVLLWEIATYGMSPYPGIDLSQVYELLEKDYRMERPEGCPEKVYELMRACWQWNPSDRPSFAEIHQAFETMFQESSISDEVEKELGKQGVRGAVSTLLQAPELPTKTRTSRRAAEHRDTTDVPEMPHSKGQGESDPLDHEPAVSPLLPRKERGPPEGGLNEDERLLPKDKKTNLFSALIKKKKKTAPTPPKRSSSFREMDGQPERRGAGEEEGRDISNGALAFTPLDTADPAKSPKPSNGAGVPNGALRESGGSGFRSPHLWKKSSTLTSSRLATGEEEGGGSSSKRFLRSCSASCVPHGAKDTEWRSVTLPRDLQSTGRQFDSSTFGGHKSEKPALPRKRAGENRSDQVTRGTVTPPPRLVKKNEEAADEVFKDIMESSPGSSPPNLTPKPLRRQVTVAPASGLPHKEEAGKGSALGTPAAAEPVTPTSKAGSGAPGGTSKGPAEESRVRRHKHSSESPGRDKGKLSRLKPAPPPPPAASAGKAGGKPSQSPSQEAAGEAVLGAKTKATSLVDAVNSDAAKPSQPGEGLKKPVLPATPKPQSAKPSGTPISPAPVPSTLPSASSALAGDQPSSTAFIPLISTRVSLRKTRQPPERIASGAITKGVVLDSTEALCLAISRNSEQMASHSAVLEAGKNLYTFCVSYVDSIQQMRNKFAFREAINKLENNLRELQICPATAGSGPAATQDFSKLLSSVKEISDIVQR

## COc1cc2ncnc(N[C@H](C)c3cccc4ccccc34)c2cc1OC
[1]
  Activity: 100%
[2]
  Activity: 78%
[3]
  Activity: 76%
[4]
  Activity: 85%
[5]
  Activity: 97%
[6]
  Activity: 91%
